In US9549921B2, “Heterocyclic compounds and methods of use thereof for the treatment of hepatitis C” (priority 2014, dated 2017):
Like-named read-outs stand apart in the source and are kept apart here.

Legend:
[1] = test system: HCV replicon genotype 1a; assay: HCV replicon assay, genotype 1a (cell ELISA for NS3/4A); assay type: cell-based, hepatitis C virus
Summary of the method: (§1)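 Readout is NS3/4A protein level from an antibody-based cell ELISA, serving as an indirect measure of replicon RNA; IC50 fitted with a four-parameter function relative to DMSO control. Replicon cells, kept under G418 beforehand, were plated with serial compound dilutions minus G418 for 96 hours.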

[2] = test system: HCV replicon genotype 1b; assay: HCV replicon assay, genotype 1b (cell ELISA for NS3/4A); assay type: cell-based, hepatitis C virus
Summary of the method: as §1

[3] = Hepatitis C virus, 96 h, read-out: 1a IC50 (nM), HCV genotype 1a replicon cells, 96 hours incubation, NS3/4A ELISA readout, % of DMSO control
[4] = Hepatitis C virus, 96 h, read-out: 1b IC50 (nM), HCV genotype 1b replicon cells, 96 hours incubation, NS3/4A ELISA readout, % of DMSO control
[5] = read-out: 1a IC50, HCV genotype 1a replicon cells, 96 hours incubation, NS3/4A ELISA readout, % of DMSO control
[6] = read-out: 1b IC50, HCV genotype 1b replicon cells, 96 hours incubation, NS3/4A ELISA readout, % of DMSO control

Compound `CNC(=O)c1c(-c2ccc(F)cc2)oc2cc(N(C)S(C)(=O)=O)c([C@@H]3CCCN(C(=O)c4cc5cccnc5[nH]4)C3)cc12` (stereo in doubt) [Example 66, 2-(4-fluorophenyl)-N-methyl-6-[methyl(methylsulfonyl)amino]-5-[1-(1H-pyrrolo[2,3-b]pyridin-2-ylcarbonyl)piperidin-3-yl]-1-benzofuran-3-carboxamide] has an IC50 [1, 3] of 92.6 nM and an IC50 [2, 4] of 21.2 nM.

For `CNC(=O)c1c(-c2ccc(F)cc2)oc2cc(N(C)S(C)(=O)=O)c([C@@H]3CCCN(c4nc5c(F)cccc5o4)C3)cc12` (single isomer, unassigned) [Example 50, 5-(1-(4-fluorobenzo[d]oxazol-2-yl)piperidin-3-yl)-2-(4-fluorophenyl)-N-methyl-6-(N-methylmethylsulfonamido)benzofuran-3-carboxamide], the IC50 [1, 5] was 81.7 nM and the IC50 [2, 6] was 20.1 nM.

`CNC(=O)c1c(-c2ccc(F)cc2)oc2cc(N(C)S(C)(=O)=O)c([C@@H]3CCCN(C(=O)c4cc5cccc(OC)c5[nH]4)C3)cc12` (single isomer, unassigned) [Example 42, 2-(4-fluorophenyl)-5-(1-(7-methoxy-1H-indole-2-carbonyl)piperidin-3-yl)-N-methyl-6-(N-methylmethylsulfonamido)benzofuran-3-carboxamide] was tested, and the IC50 [1, 5] was 106 nM and the IC50 [2, 6] was 23.9 nM.

`CNC(=O)c1c(-c2ccc(F)cc2)oc2cc(N(C)S(C)(=O)=O)c([C@@H]3CCCN(C(=O)c4cc5c(OC)cccc5[nH]4)C3)cc12` [Example 64, 2-(4-fluorophenyl)-5-{1-[(4-methoxy-1H-indol-2-yl)carbonyl]piperidin-3-yl}-N-methyl-6-[methyl(methylsulfonyl)amino]-1-benzofuran-3-carboxamide] gave an IC50 [1, 3] of 135 nM and an IC50 [2, 4] of 40.7 nM.

Work on `CNC(=O)c1c(-c2ccc(F)cc2)oc2cc(N(C)S(C)(=O)=O)c([C@@H]3CCCN(C(=O)c4cc5cccc(OC)c5[nH]4)C3)cc12` (single isomer, unassigned) [Example 41, 2-(4-fluorophenyl)-5-(1-(7-methoxy-1H-indole-2-carbonyl)piperidin-3-yl)-N-methyl-6-(N-methylmethylsulfonamido)benzofuran-3-carboxamide] yielded an IC50 [1, 5] of 30.7 nM and an IC50 [2, 4] of 13.5 nM.

`CNC(=O)c1c(-c2ccc(F)cc2)oc2cc(N(C)S(C)(=O)=O)c([C@@H]3CCCN(C(=O)c4cc5cccc(C(F)(F)F)c5[nH]4)C3)cc12` [Example 39, (S)-2-(4-fluorophenyl)-N-methyl-6-(N-methylmethylsulfonamido)-5-(1-(7-(trifluoromethyl)-1H-indole-2-carbonyl)piperidin-3-yl)benzofuran-3-carboxamide] was tested, and the IC50 [1, 3] was 268 nM and the IC50 [2, 4] was 36.4 nM.

For `CNC(=O)c1c(-c2ccc(F)cc2)oc2cc(N(C)S(C)(=O)=O)c([C@H]3CCCN(C(=O)c4cn5cc(Cl)cc(N)c5n4)C3)cc12` [Example 104, 5-{(3R)-1-[(8-amino-6-chloroimidazo[1,2-a]pyridin-2-yl)carbonyl]piperidin-3-yl}-2-(4-fluorophenyl)-N-methyl-6-[methyl(methylsulfonyl)amino]-1-benzofuran-3-carboxamide], the IC50 [1, 3] was 284 nM and the IC50 [2, 4] was 136 nM.

In the case of `CNC(=O)c1c(-c2ccc(F)cc2)oc2cc(N(C)S(C)(=O)=O)c([C@H]3CCCN(C(=O)c4cc5cccc(C(F)(F)F)c5[nH]4)C3)cc12` [Example 40, (R)-2-(4-fluorophenyl)-N-methyl-6-(N-methylmethylsulfonamido)-5-(1-(7-(trifluoromethyl)-1H-indole-2-carbonyl)piperidin-3-yl)benzofuran-3-carboxamide], the IC50 [1, 3] is reported as 142 nM and the IC50 [2, 4] is reported as 27.6 nM.

In the case of `CNC(=O)c1c(-c2ccc(F)cc2)oc2cc(N(C)S(C)(=O)=O)c([C@@H]3CCCN(C(=O)[C@H](N)c4ccccc4F)C3)cc12` (single isomer, unassigned) [Example 30], the IC50 [1, 5] is reported as 122 nM and the IC50 [2, 6] is reported as 215 nM.

`CNC(=O)c1c(-c2ccc(F)cc2)oc2cc(N(C)S(C)(=O)=O)c([C@H]3CCCN(S(=O)(=O)c4cc5ccccc5o4)C3)cc12` [Example 83, 5-[(3R)-1-(1-benzofuran-2-ylsulfonyl)piperidin-3-yl]-2-(4-fluorophenyl)-N-methyl-6-[methyl(methylsulfonyl)amino]-1-benzofuran-3-carboxamide] showed an IC50 [1, 3] of 38.2 nM and an IC50 [2, 4] of 22.4 nM.

`CNC(=O)c1c(-c2ccc(F)cc2)oc2cc(N(C)S(C)(=O)=O)c([C@H]3CCCN(C(=O)c4cc5cccc(F)c5[nH]4)C3)cc12` [Example 31, (R)-5-(1-(7-fluoro-1H-indole-2-carbonyl)piperidin-3-yl)-2-(4-fluorophenyl)-N-methyl-6-(N-methylmethylsulfonamido)benzofuran-3-carboxamide] was tested, and the IC50 [1, 3] was 17.1 nM and the IC50 [2, 4] was 9.38 nM.

In the case of `CNC(=O)c1c(-c2ccc(F)cc2)oc2cc(N(C)S(C)(=O)=O)c([C@H]3CCCN(S(=O)(=O)CCc4ccccc4)C3)cc12` [Example 141, 2-(4-fluorophenyl)-N-methyl-6-[methyl(methylsulfonyl)amino]-5-{(3R)-1-[(2-phenylethyl)sulfonyl]piperidin-3-yl}-1-benzofuran-3-carboxamide], the IC50 [1, 3] is reported as 10.6 nM and the IC50 [2, 4] is reported as 14.2 nM.

`CNC(=O)c1c(-c2ccc(F)cc2)oc2cc(N(C)S(C)(=O)=O)c([C@@H]3CCCN(S(=O)(=O)c4cccc(C)c4)C3)cc12` [Example 126, 2-(4-fluorophenyl)-N-methyl-6-[methyl(methylsulfonyl)amino]-5-{(3S)-1-[(3-methylphenyl)sulfonyl]piperidin-3-yl}-1-benzofuran-3-carboxamide] was tested, and the IC50 [1, 3] was 46.9 nM and the IC50 [2, 4] was 13.2 nM.

In the case of `CNC(=O)c1c(-c2ccc(F)cc2)oc2cc(N(C)S(C)(=O)=O)c([C@@H]3CCCN(C(=O)c4cc5cccc(F)c5[nH]4)C3)cc12` [Example 32, (S)-5-(1-(7-fluoro-1H-indole-2-carbonyl)piperidin-3-yl)-2-(4-fluorophenyl)-N-methyl-6-(N-methylmethylsulfonamido)benzofuran-3-carboxamide], the IC50 [1, 3] is reported as 53.1 nM and the IC50 [2, 4] is reported as 19.2 nM.

`CCn1c(C(=O)N2CCC[C@H](c3cc4c(C(=O)NC)c(-c5ccc(F)cc5)oc4cc3N(C)S(C)(=O)=O)C2)cc2c(F)cccc21` [Example 34, (R)-5-(1-(1-ethyl-4-fluoro-1H-indole-2-carbonyl)piperidin-3-yl)-2-(4-fluorophenyl)-N-methyl-6-(N-methylmethylsulfonamido)benzofuran-3-carboxamide] was tested, and the IC50 [1, 3] was 84.1 nM and the IC50 [2, 4] was 65.3 nM.

In the case of `CNC(=O)c1c(-c2ccc(F)cc2)oc2cc(N(C)S(C)(=O)=O)c([C@H]3CCCN(S(=O)(=O)c4cccc5nonc45)C3)cc12` [Example 138, 5-[(3R)-1-(2,1,3-benzoxadiazol-4-ylsulfonyl)piperidin-3-yl]-2-(4-fluorophenyl)-N-methyl-6-[methyl(methylsulfonyl)amino]-1-benzofuran-3-carboxamide], the IC50 [1, 3] is reported as 139 nM and the IC50 [2, 4] is reported as 55.7 nM.

With `CNC(=O)c1c(-c2ccc(F)cc2)oc2cc(N(C)S(C)(=O)=O)c([C@@H]3CCCN(S(=O)(=O)c4c(Cl)nc5sccn45)C3)cc12` [Example 118, 5-{(3S)-1-[(6-chloroimidazo[2,1-b][1,3]thiazol-5-yl)sulfonyl]piperidin-3-yl}-2-(4-fluorophenyl)-N-methyl-6-[methyl(methylsulfonyl)amino]-1-benzofuran-3-carboxamide] the IC50 [1, 3] was 41 nM and the IC50 [2, 4] was 8.36 nM.

`CNC(=O)c1c(-c2ccc(F)cc2)oc2cc(N(C)S(C)(=O)=O)c([C@@H]3CCCN(S(=O)(=O)c4ccc5c(c4)CC(=O)N5)C3)cc12` [Example 122, 2-(4-fluorophenyl)-N-methyl-6-[methyl(methylsulfonyl)amino]-5-{(3S)-1-[(2-oxo-2,3-dihydro-1H-indol-5-yl)sulfonyl]piperidin-3-yl}-1-benzofuran-3-carboxamide] was tested, and the IC50 [1, 3] was 78.8 nM and the IC50 [2, 4] was 22.1 nM.

In the case of `CNC(=O)c1c(-c2ccc(F)cc2)oc2cc(N(C)S(C)(=O)=O)c([C@@H]3CCCN(c4nc5ccccc5o4)C3)cc12` (single isomer, unassigned) [Example 48, 5-(1-(benzo[d]oxazol-2-yl)piperidin-3-yl)-2-(4-fluorophenyl)-N-methyl-6-(N-methylmethylsulfonamido)benzofuran-3-carboxamide], the IC50 [1, 5] is reported as 40.2 nM and the IC50 [2, 6] is reported as 24.8 nM.

Compound `CNC(=O)c1c(-c2ccc(F)cc2)oc2cc(N(C)S(C)(=O)=O)c([C@@H]3CCCN(c4nc5ccccc5o4)C3)cc12` (single isomer, unassigned) [Example 47, 5-(1-(benzo[d]oxazol-2-yl)piperidin-3-yl)-2-(4-fluorophenyl)-N-methyl-6-(N-methylmethylsulfonamido)benzofuran-3-carboxamide] has an IC50 [1, 5] of 8.37 nM and an IC50 [2, 6] of 5.37 nM.

`CNC(=O)c1c(-c2ccc(F)cc2)oc2cc(N(C)S(C)(=O)=O)c([C@@H]3CCCN(S(=O)(=O)c4cnc5c(c4)OCCN5C)C3)cc12` [Example 127, 2-(4-fluorophenyl)-N-methyl-5-{(3S)-1-[(4-methyl-3,4-dihydro-2H-pyrido[3,2-b][1,4]oxazin-7-yl)sulfonyl]piperidin-3-yl}-6-[methyl(methylsulfonyl)amino]-1-benzofuran-3-carboxamide] showed an IC50 [1, 3] of 90.2 nM and an IC50 [2, 4] of 32.4 nM.

In the case of `CNC(=O)c1c(-c2ccc(F)cc2)oc2cc(N(C)S(C)(=O)=O)c([C@H]3CCCN(S(=O)(=O)Cc4ccccc4F)C3)cc12` [Example 81, 5-{(3R)-1-[(2-fluorobenzyl)sulfonyl]piperidin-3-yl}-2-(4-fluorophenyl)-N-methyl-6-[methyl(methylsulfonyl)amino]-1-benzofuran-3-carboxamide], the IC50 [1, 3] is reported as 14.1 nM and the IC50 [2, 4] is reported as 11.6 nM.
